What all share (type): cell-based
Experiment [1] concerns HCV 1a RLuc cells (dicistronic genotype 1a H77 replicon, RLuc reporter). Briefly: microbe, parasite or virus in culture. The note with it: Hepatitis C virus, read-out: 1a. Put shortly: (§1)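 Replicon cells stably carrying the listed RLuc-encoding dicistronic replicons were seeded and treated with DMSO serial dilutions of compound (10 mM stocks) diluted into culture medium. After 72 h, cells were lysed and Renilla luciferase activity measured. EC50 was derived by non-linear regression.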

In experiment [2] the test system is HCV 1b RLuc cells (dicistronic genotype 1b Con1 replicon, RLuc reporter). Kind of experiment: microbe, parasite or virus in culture. To be noted: Hepatitis C virus, read-out: 1b (nM). Summed up:
as §1

In experiment [3] the test system is HCV 2a JFH-1 Rluc cells (dicistronic genotype 2a JFH-1 replicon, RLuc reporter). Briefly: microbe, parasite or virus in culture. To be noted: Hepatitis C virus, genotype 2a JFH-1 replicon, read-out: 2a JFH. Put shortly:
as §1
A general note: A replicon is a self-replicating genome or part of one, used to study replication in cells.

Experiment [4] concerns HCV 3a RLuc cells (NS5A chimeric genotype 1b Con1 replicon with consensus genotype 3a NS5A gene). Briefly: microbe, parasite or virus in culture. To be noted: Hepatitis C virus. Put shortly: as §1
The subject of experiment [5] is HCV 4a Rluc cells (NS5A chimeric genotype 1b Con1 replicon with genotype 4a NS5A gene). Kind of experiment: microbe, parasite or virus in culture. The note with it: Hepatitis C virus, read-out: 4a. Summed up: as §1
Experiment [6] deals with HCV 2a Rluc cells (NS5A chimeric genotype 2a JFH-1 replicon with genotype 2a J6 strain NS5A gene, M31 present). Briefly: HCV replicon reporter assay, genotype 2a J6 (M31 present). The note with it: Hepatitis C virus, read-out: 2a J6. As to the method:
Evaluation of cell-based anti-HCV activity: Antiviral potency (EC50) was determined using a Renilla luciferase (RLuc)-based HCV replicon reporter assay. To perform the assay for genotype 1 and 2a JFH-1, HCV 1b RLuc cells (harboring a dicistronic genotype 1b Con1 replicon that encodes a RLuc reporter), or HCV 1a RLuc cells (harboring a dicistronic genotype 1a H77 replicon that encodes a RLuc reporter), or HCV 2a JFH-1 Rluc cells (harboring a dicistronic genotype 2a JFH-1 replicon that encodes a RLuc reporter) were dispensed into 384-well plates. To perform the assay for genotype 2a (with M31 present) or 2b, HCV 2a Rluc or 2b Rluc cells (both with M31 present) harboring a dicistronic NS5A chimeric genotype 2a JFH-1 replicon that encodes a RLuc reporter and either genotype 2a J6 strain NS5A gene or genotype 2b MD2b-1 NS5A gene (based on Los Alamos HCV database isolates, both with M31 present) respectively, were dispensed into 384-well plates. To perform the assay for genotype 3 and 4, HCV 3a RLuc or 4a Rluc cells harboring a dicistronic NS5A chimeric genotype 1b Con1 replicon that encodes a RLuc reporter and either a consensus genotype 3a NS5A gene or genotype 4a NS5A gene (based on Los Alamos HCV database isolates) respectively, were dispensed into 384-well plates. Compounds were re-suspended in DMSO at a concentration of 10 mM and serially diluted in DMSO either manually or using an automated pipeting instrument. Serially diluted compounds were mixed with cell culture media and added to the seeded cells. […] 72 hours later, cells were lysed and Renilla luciferase activity quantified as recommended by the manufacturer (Promega-Madison, Wis.). Non-linear regression was performed to calculate EC50 values.

Where [7] appears, read: read-out: 3a, genotype 3a replicon.
The mark [8] stands for this setting: 72 h, Table 2, genotype 1a H77 replicon, 72 hours.
Setting [9] is: read-out: 3a, Table 2, genotype 3a NS5A chimeric replicon.

The text below walks through data of patent US10344019B2 (priority 2010, dated 2019).

Read-outs that look alike come from different tables or passages of the source.

For the compound `COC(=O)N[C@H](C(=O)N1CCC[C@H]1c1nc2ccc3cc(-c4ccc(-c5[nH]c([C@@H]6[C@H]7CC[C@H](C7)N6C(=O)[C@H](NC(=O)OC)c6ccccc6)nc5Cl)cc4)ccc3c2[nH]1)C(C)C` [Example 402], the EC50 was 0.001 to 0.999 nM in experiment [1] (genotype 1a replicon); 0.015 nM in experiment [2]; 0.001 to 0.999 nM in experiment [3]; 0.001 to 0.99 nM in experiment [4] (setting [7]); 0.001 to 0.99 nM in experiment [5]; above 44 nM in experiment [6].
Consider `COC(=O)N[C@H](C(=O)N1CCC[C@H]1c1nc2ccc3cc(-c4ccc(-c5cnc([C@@H]6[C@H]7CC[C@H](C7)N6C(=O)[C@@H](NC(=O)OC)[C@@H](C)OC)[nH]5)cc4)ccc3c2[nH]1)C(C)C` [Example 55], for which the EC50 in experiment [1] (setting [8]) is 0.001 to 0.999 nM; in experiment [2] (72 h) it was 0.015 nM; in experiment [3] (72 h, Table 2, 72 hours), 0.001 to 0.999 nM; in experiment [4] (setting [9]) it was 0.001 to 0.99 nM; in experiment [5] it was 0.001 to 0.99 nM; in experiment [6], above 44 nM.
With `COC(=O)N[C@H](C(=O)N1[C@@H]2CC[C@@H](C2)[C@H]1c1nc2ccc3cc(-c4ccc5c(ccc6nc([C@@H]7C[C@H]8C[C@H]8N7C(=O)[C@@H](NC(=O)OC)C(C)C)[nH]c65)c4)ccc3c2[nH]1)C(C)C` [Example 405], the EC50 in experiment [1] (genotype 1a replicon) was 0.001 to 0.999 nM; in experiment [2], 0.009 nM; in experiment [3], 0.001 to 0.999 nM; in experiment [4] (setting [7]), 0.001 to 0.99 nM; in experiment [5], 0.001 to 0.99 nM; in experiment [6], 1 to 44 nM.
Consider `COC(=O)N[C@H](C(=O)N1CCC[C@H]1c1nc2ccc3cc(-c4ccc(-c5cnc([C@@H]6[C@H]7CC[C@H](C7)N6C(=O)[C@H](NC(=O)OC)c6ccccc6)[nH]5)cc4)ccc3c2[nH]1)C(C)C` [Example 54], for which the EC50 in experiment [1] (setting [8]) was 0.001 to 0.999 nM; in experiment [2] (72 h), 0.014 nM; in experiment [3] (72 h, Table 2, 72 hours) it was 0.001 to 0.999 nM; in experiment [4] (setting [9]) it was 0.001 to 0.99 nM; in experiment [5] it was 0.001 to 0.99 nM; in experiment [6], above 44 nM.
For `COC(=O)N[C@H](C(=O)N1CCC[C@H]1c1ncc(-c2cc3c4c(c2)COc2cc(-c5cnc([C@@H]6CCCN6C(=O)[C@@H](NC(=O)OC)C(C)C)[nH]5)cc(c2-4)OC3)[nH]1)C(C)C` [Example 319], the EC50 is 0.001 to 0.999 nM in experiment [1] (genotype 1a replicon); 0.021 nM in experiment [2]; 0.001 to 0.999 nM in experiment [3]; 0.001 to 0.99 nM in experiment [4] (setting [7]); 0.001 to 0.99 nM in experiment [5]; 0.001 to 0.999 nM in experiment [6].
On to `COC(=O)NC(C(=O)N1CCC[C@H]1c1ncc(-c2ccc(-c3ccc4c(ccc5nc([C@@H]6[C@H]7CC[C@H](C7)N6C(=O)[C@@H](NC(=O)OC)[C@@H](C)OC)[nH]c54)c3)cc2)[nH]1)C(C)C` (stereo partly drawn) [Example 66], for which the EC50 in experiment [1] (setting [8]) is 0.001 to 0.999 nM; in experiment [2] (72 h), 0.022 nM; in experiment [3] (72 h, Table 2, 72 hours), 0.001 to 0.999 nM; in experiment [4] (setting [9]), 0.001 to 0.99 nM; in experiment [5], 0.001 to 0.99 nM; in experiment [6], above 44 nM.
Turning to `COC(=O)N[C@H](C(=O)N1[C@@H]2CC[C@@H](C2)[C@H]1c1nc(Cl)c(-c2ccc(-c3ccc4c(ccc5nc([C@@H]6C[C@H]7C[C@H]7N6C(=O)[C@@H](NC(=O)OC)C(C)C)[nH]c54)c3)cc2)[nH]1)C(C)C` [Example 381], the EC50 in experiment [1] (genotype 1a replicon) was 0.001 to 0.999 nM; in experiment [2] it was 0.008 nM; in experiment [3] it was 0.001 to 0.999 nM; in experiment [4] (setting [7]) it was 0.001 to 0.99 nM; in experiment [5], 0.001 to 0.99 nM; in experiment [6], above 44 nM.
For `COC(=O)N[C@H](C(=O)N1CCC[C@H]1c1nc(Cl)c(-c2ccc3c(c2)OCc2c-3ccc(-c3[nH]c([C@@H]4CCCN4C(=O)[C@@H](NC(=O)OC)C(C)C)nc3Cl)c2F)[nH]1)C(C)C` [Example 404], the EC50 in experiment [1] (genotype 1a replicon) is 0.001 to 0.999 nM; in experiment [2], 0.008 nM; in experiment [3] it was 0.001 to 0.999 nM; in experiment [4] (setting [7]) it was 0.001 to 0.99 nM; in experiment [5] it was 0.001 to 0.99 nM; in experiment [6], above 44 nM.
As to `COC(=O)N[C@H](C(=O)N1CCC[C@H]1c1nnc(-c2ccc(-c3ccc4c(ccc5nc([C@@H]6CCCN6C(=O)[C@@H](NC(=O)OC)C(C)C)[nH]c54)c3)cc2)[nH]1)C(C)C` [Example 407], the EC50 in experiment [1] (genotype 1a replicon) was 0.001 to 0.999 nM; in experiment [2], 0.048 nM; in experiment [3] it was 0.001 to 0.999 nM; in experiment [4] (setting [7]) it was 1 to 4.99 nM; in experiment [5] it was 0.001 to 0.99 nM; in experiment [6] it was above 44 nM.
For `COC(=O)N[C@H](C(=O)N1CCC[C@H]1c1nc2ccc3cc(-c4ccc5c(c4)CCc4nc([C@@H]6CC7(CN6C(=O)[C@@H](NC(=O)OC)[C@@H](C)OC)OCCO7)[nH]c4-5)ccc3c2[nH]1)C(C)C` [Example 83], the EC50 was 0.001 to 0.999 nM in experiment [1] (setting [8]); 0.094 nM in experiment [2] (72 h); 0.001 to 0.999 nM in experiment [3] (72 h, Table 2, 72 hours); 1 to 4.99 nM in experiment [4] (setting [9]); 0.001 to 0.99 nM in experiment [5]; above 44 nM in experiment [6].
Turning to `COC(=O)N[C@H](C(=O)N1CCC[C@H]1c1nc2ccc3cc(-c4ccc(-c5cnc([C@@H]6[C@H]7CC[C@H](C7)N6C(=O)[C@H](NC(=O)OC)c6ccccc6)[nH]5)c(F)c4)ccc3c2[nH]1)C(C)C` [Example 306], the EC50 is 0.001 to 0.999 nM in experiment [1] (genotype 1a replicon); 0.011 nM in experiment [2]; 0.001 to 0.999 nM in experiment [3]; 0.001 to 0.99 nM in experiment [4] (setting [7]); 0.001 to 0.99 nM in experiment [5]; above 44 nM in experiment [6].
Take `COC(=O)N[C@H](C(=O)N1CCC[C@H]1c1ncc(-c2cc3c4c(c2)OCc2cc(-c5[nH]c([C@@H]6CCCN6C(=O)[C@@H](NC(=O)OC)C(C)C)nc5Cl)cc(c2-4)OC3)[nH]1)C(C)C` [Example 389]: the EC50 in experiment [1] (genotype 1a replicon) is 0.001 to 0.999 nM; in experiment [2], 0.015 nM; in experiment [3] it was 0.001 to 0.999 nM; in experiment [4] (setting [7]), 0.001 to 0.99 nM; in experiment [5], 0.001 to 0.99 nM; in experiment [6], 1 to 44 nM.
In the case of `COC(=O)N[C@H](C(=O)N1CCC[C@H]1c1nc2ccc3cc(-c4ccc(-c5cnc([C@@H]6CC7(CN6C(=O)[C@H](C(C)C)C(C)C(=O)OC)OCCO7)[nH]5)cc4)ccc3c2[nH]1)[C@@H](C)OC` (stereo partly drawn) [Example 80], the EC50 in experiment [1] (setting [8]) is 0.001 to 0.999 nM; in experiment [2] (72 h), 0.072 nM; in experiment [3] (72 h, Table 2, 72 hours), 0.001 to 0.999 nM; in experiment [4] (setting [9]), 0.001 to 0.99 nM; in experiment [5], 0.001 to 0.99 nM; in experiment [6], above 44 nM.
For `COC(=O)N[C@H](C(=O)N1[C@@H]2CC[C@@H](C2)[C@H]1c1nc2ccc3cc(-c4ccc(-c5cnc([C@@H]6C[C@H]7C[C@H]7N6C(=O)[C@@H](NC(=O)OC)C6CCOCC6)[nH]5)c(F)c4)ccc3c2[nH]1)C(C)C` [Example 392], the EC50 in experiment [1] (genotype 1a replicon) is 0.001 to 0.999 nM; in experiment [2], 0.022 nM; in experiment [3], 0.001 to 0.999 nM; in experiment [4] (setting [7]), 1 to 4.99 nM; in experiment [5] it was 0.001 to 0.99 nM; in experiment [6] it was above 44 nM.
On to `COC(=O)N[C@H](C(=O)N1[C@@H]2CC[C@@H](C2)[C@H]1c1ncc(-c2ccc(-c3ccc4c(ccc5nc([C@@H]6C[C@H]7C[C@H]7N6C(=O)[C@@H](NC(=O)OC)C(C)C)[nH]c54)c3)cc2)[nH]1)C(C)C` [Example 98], for which the EC50 in experiment [1] (setting [8]) was 0.001 to 0.999 nM; in experiment [2] (72 h), 0.01 nM; in experiment [3] (72 h, Table 2, 72 hours), 0.001 to 0.999 nM; in experiment [4] (setting [9]), 1 to 4.99 nM; in experiment [5] it was 0.001 to 0.99 nM; in experiment [6] it was above 44 nM.
Regarding `COC(=O)N[C@@H](C(=O)N1[C@@H]2CC[C@@H](C2)[C@H]1c1nc2ccc3cc(-c4ccc5c(ccc6nc([C@@H]7C[C@H]8C[C@H]8N7C(=O)[C@H](NC(=O)OC)c7ccccc7)[nH]c65)c4)ccc3c2[nH]1)c1ccccc1` [Example 406], the EC50 was 0.001 to 0.999 nM in experiment [1] (genotype 1a replicon); 0.017 nM in experiment [2]; 0.001 to 0.999 nM in experiment [3]; 0.001 to 0.99 nM in experiment [4] (setting [7]); 0.001 to 0.99 nM in experiment [5]; 0.001 to 0.999 nM in experiment [6].
